Patent EP4782431A1 (Suzhou Merna Therapeutics Co. Ltd, priority 2023, dated 2025)

Key:
[1] = system: rat models with a hand-foot skin reaction; test: rat models with a hand-foot skin reaction; type: in vivo, SD rats; conditions: rat, in vivo
Method: After adaptive feeding for one week, SD rats (with a body weight of approximately 200 g) were randomly divided into groups with balanced body weight, with 12 rats in each group. Modeling drugs (including sorafenib, erlotinib, afatinib, and osimertinib) were respectively dissolved in a solution containing 5% of DMSO, 45% of PEG400, and 50% of H2O, and the modeling drugs were diluted to required concentrations and then administered once daily by gavage at doses shown in Table 3. After administration by gavage for 1 hour, 0.05 g of ointments containing different mass proportions of test compounds were evenly applied to left paws of the rats, a blank matrix ointment was applied to right paws of the rats to serve as a self-control, and no ointment was applied to the rats in a blank control group. After drug application, four limbs were continuously immobilized for 2 hours, then wiped with clean water to remove the residual drugs, removed from immobilization, and restored to free movement. The modeling drugs, the blank matrix ointment, and the ointments containing the test compounds were all administered once daily. After continuous administration for 30 days, the rats were euthanized, and paw plantar skin tissues were collected, fixed in 10% neutral formalin, […]. The ointments for the test compounds were prepared by mixing the compounds, white beeswax, white petrolatum, and light liquid paraffin in specific ratios (weight ratios of 3 ointments were respectively 1:18:58:23, 3:18:57:22, and 10:20:40:30). The blank matrix ointment was prepared by mixing white beeswax, white petrolatum, and light liquid paraffin in a specific ratio (weight ratio of 18:60:22).
Tissue staining: After dewaxing and rehydration, the paw plantar skin tissue sections of the above rats were stained in a hematoxylin solution for several minutes, cleaned, and placed in 1% acid alcohol for soaking until the sections faded to light blue-red. After cleaning with running water for 5 minutes, the sections were stained with eosin for 2-3 minutes, cleaned to remove excess dyes, dehydrated, then permeabilized by adding xylene for several minutes, and sealed and fixed with a neutral resin. The stratum corneum was observed under an optical microscope, and the thickness of the epidermal stratum corneum was measured using Dmetrix software.
Immunohistochemical staining: After dewaxing and hydration, the paw plantar skin tissue sections of the above rats were incubated with 3% H2O2 at room temperature for 30 minutes and blocked with 10% goat serum for 30 minutes after antigen retrieval. A KRT1 antibody (Abcam, ab93652) and a Loricrin antibody (Abcam, ab183646) were added dropwise, the sections were incubated overnight at 4°C, and an HRP secondary antibody (ZSGB-BIO, PV-6001) and a DAB kit (ZSG-BIO, ZLI9017) were added for color development. The sections were re-stained with hematoxylin, cleaned, and sealed and fixed with a neutral resin, and the expression amounts of KRT1 and Loricrin were observed under an optical microscope.
An incidence rate calculation method involves a proportion of animals in each group meeting the above criteria for determining successful modeling, that is, incidence rate = (number of successfully modeled rats/total number of rats in the group)*100%. […]

[2] = system: kinase inhibitor-induced mouse model with hand-foot skin reaction; test: kinase inhibitor-induced mouse model with hand-foot skin reaction; type: in vivo, ICR mice
Source text: After adaptive feeding for 7 days, SPF-grade ICR mice (male, 5-6 weeks old, with a body weight of approximately 35 g) were randomly divided into groups, including a blank control group (6 mice), a sorafenib modeling group (6 mice), an osimertinib modeling group (6 mice), a sorafenib + compound of formula (I) group (6 mice), an osimertinib + compound of formula (I) group (6 mice), a sorafenib + nicotinamide group (6 mice), and an osimertinib + nicotinamide group (6 mice). The groups were respectively administered corresponding modeling drugs by oral gavage (sorafenib at 100 mg/kg and osimertinib at 10 mg/kg) once daily; and the blank control group was administered an equivalent volume of normal saline. After administration with the chemotherapeutic drugs for 2 weeks, the ointments containing the compound of formula (I) (at a compound content of 3%) used in Example 10 were respectively applied topically in the groups, or nicotinamide was orally administered (100 mg/kg) once daily continuously for 16 days.
Measurement of the degree of swelling of toes: The degree of swelling of hind limb toes of the mice was measured using a toe swelling tester (KW-7C, Nanjing Calvin Biotechnology Co., Ltd.) before administration with the modeling drugs, after administration with the modeling drugs for 2 weeks, and before sacrifice, respectively. Before measurement, ankle joints of hind feet of the mice were marked at same positions before administration, after administration for 2 weeks, and before sacrifice. During measurement, water was properly located at the same level as the marked positions, and numerical values were recorded after becoming stable.
Pathological staining of skin tissues: Skin tissue samples were selected from hind limb toes of the mice and placed in 4% paraformaldehyde for fixation at room temperature for 4 hours. Then, the tissues were taken out and rinsed with running water for several hours. The samples were subjected to dehydration treatment with 70%, 80%, and 90% ethanol solutions, followed by treatment with a mixed solution of equal amounts of absolute alcohol and xylene for 15 minutes, and then permeabilized twice with a xylene solution for 15 minutes each time until the samples became transparent. The samples were placed in a mixture of half xylene and half paraffin for soaking for 15 minutes, and then, paraffin I and paraffin II were added for wax penetration for one hour, respectively. After embedding with paraffin, the samples were sectioned, baked, dewaxed, and hydrated. Then, the hydrated sections were placed in a hematoxylin solution (ZSGB-BIO, article No. 23041001) for staining for 3 minutes, and a differentiation solution of hydrochloric acid in ethanol was added for differentiation for 15 seconds. After rinsing with water, a Scott bluing solution (Servicebio, article No. 20230801) was added for bluing for 15 seconds. After rinsing with running water, the sections were stained with an eosin solution (Solarbio, article No. 33535) for 3 minutes, rinsed with running water, dehydrated, permeabilized, sealed, and inspected under a microscope.
Immunohistochemical staining: After baking, dewaxing, and hydration, paraffin sections of skin tissues of hind limb toes of the mice were subjected to antigen retrieval using a 0.2 M citric acid buffer solution (containing 1.534 g of citric acid, 3.1 g of sodium citrate, and 100 mL of distilled water, pH 4.7). Endogenous […] was removed using 3% hydrogen peroxide (Shandong Annjet High-Tech Disinfection Technology Co., Ltd., article No. 20290902), and the sections were incubated at room temperature for 10 minutes and then fully rinsed with a PBS buffer solution (containing 8 g of NaCl, 0.2 g of KCl, 1.44 g of Na2HPO4, and 1 M HCl, pH 7.4). The sections were permeabilized with 0.5% Triton-X-100 (AmyJet Scientific, article No. A-CSH436-100 mL), respectively permeabilized with mouse anti-IL-1β and rabbit IL-8 for 10 minutes, and not permeabilized with rabbit anti-IL-6. […]

Compound: C=CC(=O)Nc1cc(Nc2nccc(-c3cn(C)c4ccccc34)n2)c(OC)cc1N(C)CCN(C)C [Osimertinib, osimertinib]
- KRT1 and Loricrin in tissues [1]: significantly increased
- stratum corneum thickness of the paw plantar skin [1]: significantly higher than that of normal rats
- cytokine IL-1β in the skin tissues of the hind limb toes of the mice ([2]; modeling drug oral 14 days, vs normal control group, p<0.05): significantly increased
- swelling of the hind limb toes of the mice ([2]; modeling drug oral, 14 days: sorafenib 100 mg/kg, osimertinib 10 mg/kg): significant swelling of the hind limb toes of the mice was caused
- epidermal layer and the stratum corneum in the skin tissues of the hind limb toes ([2]; modeling drug oral, 14 days: sorafenib, osimertinib, vs normal control group): significantly thickened
- skin of the hind limb toes of the mice (appearance) ([2]; modeling for 14 days: sorafenib 100 mg/kg, osimertinib 10 mg/kg oral gavage once daily, vs normal control group): obvious erythema and rhagades
